A short description of this data set: logP. It is filed as physicochemical.

Each structure is given as a SMILES string. Read-outs that look alike come from different tables or passages of the source.

With `CCN(C)C=Nc1cc(C)c(Oc2ccc3c(c2)CCCC3)cc1C` [Compound 13, N-Ethyl-N-methyl-N′-[4-(5,6,7,8-tetrahydro-2-naphthoxy)-2,5-dimethylphenyl]formamidine], the logP by setting is: (acidic, read-out: logP acidic) 2.69; (neutral, read-out: logP neutr.) 6.31; (pH 2.3, pH 2.3, read-out: log P (pH2.3)) 2.14.

For the origin of these results see patent US8080688B2, “3, 4-disubstituted phenoxyphenylamidines and use thereof as fungicides” (Bayer Cropscience AG, priority 2007, dated 2011).
